Assays:
[1] = tested on: T-47D; assay: Caspase cascade activation (DEVD-R110 fluorogenic substrate) in T-47D cells; assay type: cell-based, Human; conditions: 24 h incubation; for EC50: Homo sapiens, T47D, read-out: Caspase potency EC50 T-47D; for Caspase activity (Ratio) T-47D: ratio of net RFU of compound to control, 0.16 to 10 μM final
Description: (§1) Human breast cancer cell lines T-47D and DLD were grown according to media component mixtures designated by American Type Culture Collection+10% FCS Invitrogen Corporation), in a 5% CO2-95% humidity incubator at 37° C. T-47D and DLD cells were maintained at a cell density between 30 and 80% confluency and for HL-60 at a cell density of 0.1 to 0.6×10^6 cells/ml. Cells were harvested at 600×g and resuspended at 0.65×10^6 cells/mL into appropriate media+10% FCS. An aliquot of 45 μl of cells was added to a well of a 96-well microtiter plate containing 5 μl of a 10% DMSO in RPMI-1640 media solution containing 1.6 to 100 μM of novel derivative of gambogic acid (0.16 to 10 μM final). An aliquot of 45 μl of cells was added to a well of a 96-well microtiter plate containing 5 μl of a 10%. DMSO in RPMI-1640 media solution without test compound as the control sample. The samples were mixed by agitation and then incubated at 37° C. for 24 h in a 5% CO2-95% humidity incubator. After incubation, the samples were removed from the incubator and 50 μl of a solution containing 20 μM of N-(Ac-DEVD)-N′-ethoxycarbonyl-R110 fluorogenic substrate SEQ ID NO:1 (Cytovia, Inc.; U.S. Pat. No. 6,335,429), 20% sucrose (Sigma), 20 mM DTT (Sigma), 200 mM NaCl (Sigma), 40 mM Na PIPES buffer pH 7.2 (Sigma), and 500 μg/ml lysolecithin (Calbiochem) was added. The samples were mixed by agitation and incubated at room temperature. Using a fluorescent plate reader (Model 1420 Wallac Instruments), an initial reading (T=0) was made approximately 1-2 min after addition of the substrate solution, employing excitation at 485 nm and emission at 530 nm, to determine the background fluorescence of the control sample. After approximately 3 h of incubation, the samples were read for fluorescence as above (T=3 h).
(§2) The Relative Fluorescence Unit values (RFU) were used to calculate the sample readings as follows: RFU(T=3h)−Control RFU(T=0)=Net RFU(T=3h)
(§3) The activity of caspase cascade activation was determined by the ratio of the net RFU value for derivatives of gambogic acid to that of control samples. The EC50 (nM) was determined by a sigmoidal dose-response calculation (Prism 2.0, GraphPad Software Inc.).

[2] = tested on: DLD; assay: Caspase cascade activation (DEVD-R110 fluorogenic substrate) in DLD cells; assay type: cell-based, Human; conditions: 24 h incubation; for EC50: Homo sapiens, read-out: Caspase potency EC50 DLD; for Caspase activity (Ratio) DLD: ratio of net RFU of compound to control, 0.16 to 10 μM final
Description: as §1, §2, §3

[3] = tested on: MX-1; assay: Inhibition of cell proliferation (GI50), MX-1; assay type: cell-based; conditions: Homo sapiens, MX1; MX-1 cells, 48 h, CellTiter 96 AQueous
Description: (§4) T-47D, DLD-1, MX-1, SW620, H1299, HEK293T and HEK293H cells were grown and harvested as in Example 11. An aliquot of 90 μL of cells (2.2×10^4 cells/mL) was added to a well of a 96-well microtiter plate containing 10 μl of a 10% DMSO in RPMI-1640 media solution containing 1 nM to 100 μM of novel derivative of gambogic acid (Example 2; 0.1 nM to 10 μM final). An aliquot of 90 μL of cells was added to a well of a 96-well microtiter plate containing 10 μL of a 10% DMSO in RPMI-1640 media solution without compound as the control sample for maximal cell proliferation (AMax). The samples were mixed by agitation and then incubated at 37° C. for 48 h in a 5% CO2-95% humidity incubator. After incubation, the samples were removed from the incubator and 20 μL of CellTiter 96 AQUEOUS One Solution Cell Proliferation™ reagent (Promega) was added. The samples were mixed by agitation and incubated at 37° C. for 2-4 h in a 5% CO2-95% humidity incubator. Using an absorbance plate reader (Model 1420 Wallac Instruments), an initial reading (T=0) was made approximately 1-2 min after addition of the solution, employing absorbance at 490 nm. This determines the possible background absorbance of the test compounds. No absorbance for the derivative of gambogic acid was found at 490 nm. After the 2-4 h incubation, the samples were read for absorbance as above (ATest). […]

[4] = tested on: HEK293T; assay: Inhibition of cell proliferation (GI50), HEK293T; assay type: cell-based; conditions: Homo sapiens, HEK-293T; HEK293T cells, 48 h, CellTiter 96 AQueous
Description: as §4

[5] = tested on: DLD; assay: Inhibition of cell proliferation (GI50), DLD; assay type: cell-based; conditions: Homo sapiens; DLD cells, 48 h, CellTiter 96 AQueous
Description: as §4

[6] = tested on: T47D; assay: Inhibition of cell proliferation (GI50), T47D; assay type: cell-based; conditions: Homo sapiens; T47D cells, 48 h, CellTiter 96 AQueous
Description: as §4

[7] = tested on: SW620; assay: Inhibition of cell proliferation (GI50), SW620; assay type: cell-based; conditions: Homo sapiens, SW-620; SW620 cells, 48 h, CellTiter 96 AQueous
Description: as §4

[8] = tested on: H1299; assay: Inhibition of cell proliferation (GI50), H1299; assay type: cell-based; conditions: Homo sapiens, NCI-H1299; H1299 cells, 48 h, CellTiter 96 AQueous
Description: as §4

[9] = tested on: HEK293H; assay: Inhibition of cell proliferation (GI50), HEK293H; assay type: cell-based; conditions: HEK293-H; HEK293H cells, 48 h, CellTiter 96 AQueous
Description: as §4

SMILES	EC50 [1] [nM]	Caspase activity (Ratio) T-47D [1]	EC50 [2] [nM]	Caspase activity (Ratio) DLD [2]	GI50 [3] [nM]	GI50 [4] [nM]	GI50 [5] [nM]	GI50 [6] [nM]	GI50 [7] [nM]	GI50 [8] [nM]	GI50 [9] [nM]
CC(C)=CCCC1(C)C=Cc2c(O)c3c(c(CC=C(C)C)c2O1)OC12C(=CC4CC1C(C)(C)OC2(C/C=C(/C)C(=O)NCCCN1CCOCC1)C4=O)C3=O (centres unmarked) [Example 4, N-(3-Morpholin-4-yl-propyl)gambogamide]	638	15	824	7.2							
CC(C)=CCCC1(C)C=Cc2c(O)c3c(c(CC=C(C)C)c2O1)OC12C(=CC4CC1C(C)(C)OC2(C/C=C(/C)C(=O)OCCN(C)C)C4=O)C3=O (centres unmarked) [Example 2, 2-Dimethylaminoethyl gambogate]	676	17	1040	7.2	101	440	173	187	180	184	192
COC(=O)/C(C)=C\CC12OC(C)(C)C3CC(C=C4C(=O)c5c(O)c6c(c(CC=C(C)C)c5OC431)OC(C)(CCC(O)C(C)(C)O)C=C6)C2=O (centres unmarked) [Example 5, Methyl 37,38-Dihydroxy-gambogate]	750	17	1290	7.2							
CC(C)=CCCC1(C)C=Cc2c(O)c3c(c(CC=C(C)C)c2O1)OC12C(=CC4CC1C(C)(C)OC2(C/C=C(/C)C(=O)OCCN1CCOCC1)C4=O)C3=O (centres unmarked) [Example 1, 2-(Morpholin-4-yl)-ethyl gambogate]	303	18	350	7.6							
COC(=O)/C(C)=C\CC12OC(C)(C)C3CC(C1=O)C(N1CCOCC1)C1C(=O)c4c(O)c5c(c(CC=C(C)C)c4OC132)OC(C)(CCC=O)C=C5 (centres unmarked) [Example 7, Methyl 20-Ethylaldehyde-9,10-dihydro-10-morpholinyl-morellinate]	1110	16	1360	5.8							
COC(=O)/C(C)=C\CC12OC(C)(C)C3CC(C1=O)C(N1CCOCC1)C1C(=O)c4c(O)c5c(c(CC=C(C)C)c4OC132)OC(C)(CCC(O)C(C)(C)O)C=C5 (centres unmarked) [Example 6, Methyl 37,38-Dihydroxy-9,10-dihydro-10-morpholinyl-gambogate]	1160	17	2400	9.2							
CC(C)=CCCC1(C)C=Cc2c(O)c3c(c(CC=C(C)C)c2O1)OC12C(=CC4CC1C(C)(C)OC2(C/C=C(/C)C(=O)NCCCN1CCN(C)CC1)C4=O)C3=O (centres unmarked) [Example 3, N-[3-(4-Methyl-piperazin-1-yl)-propyl]gambogamide]	1660	13	2120	5.8							
